According to US9682976B2, “Protein kinase C inhibitors and uses thereof” (Rigel Pharmaceuticals, Inc., priority 2012, dated 2017):
pEC50: −log10 of the molar value.

Test system: PKC mediated IL-2 production
Experiment: IL-2 ELISA, human primary T cell, anti CD3+CD28+
Type: cell-based
Settings: human primary T cells stimulated with αCD3 and αCD28, 24 hours
In short: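 IL-2 was quantified by ELISA in 24 h supernatants from primary human T cells given a 1 h compound pre-treatment at 37° C. These cells had been expanded from blood mononuclear cells on αCD3/αCD28 with IL-2, and the IL-2 was removed by washing. Stimulation used plate-bound αCD3 ([…]) plus αCD28 (5 μg/ml); the counter assay used PMA (0.5 ng/ml) with ionomycin (0.1 uM) instead.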

| SMILES | pEC50 (Homo sapiens, T-cell, 24 h) | also measured |
| --- | --- | --- |
| CC1(C)CC(Nc2nc(Nc3cc(-n4cnnn4)c(C4CC4)cc3F)ncc2F)CC2CCCN21 (single isomer, unassigned) [Compound 55, N^2-(4-cyclopropyl-2-fluoro-5-(1H-tetrazol-1-yl)phenyl)-5-fluoro-N^4-(octahydro-5,5-dimethylindolizin-7-yl)pyrimidine-2,4-diamine] | – | pEC50: 6.30 to 7.00 |
| CC1(C)CC[C@H]2C[C@@H](Nc3nc(Nc4ccc(OC5CC(O)C5)c(C(F)(F)F)c4)ncc3F)CCN21 (stereo partly drawn) [Compound 305, 3-(4-((4-(((7S,8aS)-3,3-Dimethyloctahydroindolizin-7-yl)amino)-5-fluoropyrimidin-2-yl)amino)-2-(trifluoromethyl)phenoxy)cyclobutan-1-ol] | 6.30 to 7.00 | – |
| CC1(C)C[C@H](Nc2nc(Nc3cc(-n4nnnc4C4CC4)ccc3F)ncc2F)C[C@@H]2CCCN21 [Compound 144, N2-(5-(5-cyclopropyl-1H-tetrazol-1-yl)-2-fluorophenyl)-N4-((7R,8aS)-5,5-dimethyloctahydroindolizin-7-yl)-5-fluoropyrimidine-2,4-diamine] | > 7.00 | – |
| Cn1nnn(-c2cc(Nc3ncc(F)c(N[C@@H]4C[C@@H]5CCCN5C(C)(C)C4)n3)c(F)cc2OC2CCOC2=O)c1=O (stereo partly drawn) [Compound 185, 1-(5-((4-(((7R,8aS)-5,5-dimethyloctahydroindolizin-7-yl)amino)-5-fluoropyrimidin-2-yl)amino)-4-fluoro-2-((2-oxotetrahydrofuran-3-yl)oxy)phenyl)-4-methyl-1,4-dihydro-5H-tetrazol-5-one] | < 5.00 | – |
| CC1(C)C[C@H](Nc2nc(Nc3cccc(-n4nnn(CCO)c4=O)c3)ncc2F)C[C@@H]2CCCN21 [Compound 267, 1-(3-(4-((7R,8aS)-octahydro-5,5-dimethylindolizin-7-ylamino)-5-fluoropyrimidin-2-ylamino)phenyl)-4-(2-hydroxyethyl)-1H-tetrazol-5(4H)-one] | 6.30 to 7.00 | – |
| CC1(C)Oc2ccc(Nc3ncc(F)c(N[C@H]4C[C@@H]5CCCN5C(C)(C)C4)n3)cc2-n2nnnc21 (single isomer, unassigned) [Compound 3, N2-(4,4-dimethyl-4H-benzo[b]tetrazolo[1,5-d][1,4]oxazin-8-yl)-5-fluoro-N4-(octahydro-5,5-dimethylindolizin-7-amine)pyrimidine-2,4-diamine] | – | pEC50: 6.00 to 6.30 |
| Cn1nc2n(c1=O)-c1cc(Nc3ncc(F)c(N[C@@H]4C[C@@H]5CCCN5C(C)(C)C4)n3)ccc1OC2 [Compound 291, 5-fluoro-N2-(1H-2,4-dihydron-2-methyl-[1,2,4]triazolo[3,4-c][1,4]benzoxazin-1-one-8-yl)-N4-((7R,8aS)-octahydro-5,5-dimethylindolizin-7-yl)pyrimidine-2,4-diamine] | 6.30 to 7.00 | – |
| Cn1nc2n(c1=O)-c1cc(Nc3ncc(F)c(N[C@@H]4C[C@@H]5CCCN5C(C)(C)C4)n3)ccc1OC2(CO)CO[Si](C)(C)C(C)(C)C (stereo partly drawn) [Compound 287, 5-fluoro-N2-(1H-2,4-dihydron-4-(hydroxymethyl)-4-(((1,1-dimethylethyl)dimethylsilyl)oxymethyl)-2-methyl-[1,2,4]triazolo[3,4-c][1,4]benzoxazin-1-one-8-yl)-N4-((7R,8aS)-octahydro-5,5-dimethylindolizin-7-yl)pyrimidine-2,4-diamine] | – | pEC50 (T-cell): 5.00 to 6.00 |
| CC1(C)C[C@H](Nc2nc(Nc3ccc(OCC4COC4)c(C#N)c3)ncc2F)C[C@@H]2CCCN21 [Compound 175, 5-(4-((7R,8aS)-5,5-dimethyloctahydroindolizin-7-ylamino)-5-fluoropyrimidin-2-ylamino)-2-(oxetan-3-ylmethoxy)benzonitrile] | 6.00 to 6.30 | – |
| COc1cc(Nc2ncc(F)c(N[C@@H]3C[C@@H]4CCCN4C(C)(C)C3)n2)ccc1OCCO [Compound 216, 2-(4-((4-(((7R,8aS)-5,5-dimethyloctahydroindolizin-7-yl)amino)-5-fluoropyrimidin-2-yl)amino)-2-methoxyphenoxy)ethan-1-ol] | < 5.00 | – |
| CC1CN(c2ccc(Nc3ncc(F)c(N[C@H]4CCN5[C@@H](CCC5(C)C)C4)n3)cc2OC(F)F)CC(C)O1 (stereo partly drawn) [Compound 300, N2-(3-(Difluoromethoxy)-4-(2,6-dimethylmorpholino)phenyl)-N4-((7S,8aS)-3,3-dimethyloctahydroindolizin-7-yl)-5-fluoropyrimidine-2,4-diamine] | 6.30 to 7.00 | – |
| Cn1nnn(-c2cc(Nc3ncc(F)c(N[C@@H]4C[C@@H]5CCCN5C(C)(C)C4)n3)c(F)cc2OCC2COC2)c1=O [Compound 166, 1-(5-((4-(((7R,8aS)-5,5-dimethyloctahydroindolizin-7-yl)amino)-5-fluoropyrimidin-2-yl)amino)-4-fluoro-2-(oxetan-3-ylmethoxy)phenyl)-4-methyl-1,4-dihydro-5H-tetrazol-5-one] | 6.30 to 7.00 | – |
| Cn1nnn(-c2cc(Nc3ncc(F)c(N[C@@H]4CCN5C(CCC5(C)C)C4)n3)c(F)cc2C2CC2)c1=O (mixture of isomers) [Compound 25] | – | pEC50: 5.00 to 6.00 |
| CC1(C)C[C@H](Nc2nc(Nc3cccc(-n4nnnc4SC(CN)CO)c3)ncc2F)C[C@@H]2CCCN21 (stereo partly drawn) [Compound 264, 2-(1-(3-(4-((7R,8aS)-octahydro-5,5-dimethylindolizin-7-ylamino)-5-fluoropyrimidin-2-ylamino)phenyl)-1H-tetrazol-5-ylthio)-3-aminopropan-1-ol] | 5.00 to 6.00 | – |
| Cn1nnn(-c2cc(Nc3ncc(Cl)c(N[C@@H]4C[C@@H]5CCCN5C(C)(C)C4)n3)c(F)cc2C2CC2)c1=O [Compound 148, 1-(5-((5-chloro-4-(((7R,8aS)-5,5-dimethyloctahydroindolizin-7-yl)amino)pyrimidin-2-yl)amino)-2-cyclopropyl-4-fluorophenyl)-4-methyl-1,4-dihydro-5H-tetrazol-5-one] | > 7.00 | – |
| CSc1nnnn1-c1cccc(Nc2ncc(F)c(N[C@@H]3C[C@@H]4CCCN4C(C)(C)C3)n2)c1 [Compound 261, 5-fluoro-N4-((7R,8aS)-octahydro-5,5-dimethylindolizin-7-yl)-N2-(3-(5-(methylthio)-1H-tetrazol-1-yl)phenyl)pyrimidine-2,4-diamine] | > 7.00 | – |
| COc1ccc(Nc2ncc(F)c(N[C@H]3CCN4[C@@H](CCC4(C)C)C3)n2)cc1OC(F)F [Compound 299, N2-(3-(Difluoromethoxy)-4-methoxyphenyl)-N4-((7S,8aS)-3,3-dimethyloctahydroindolizin-7-yl)-5-fluoropyrimidine-2,4-diamine] | 6.30 to 7.00 | – |
| Cn1nc2n(c1=O)-c1cc(Nc3ncc(F)c(N[C@@H]4C[C@@H]5CCCN5C(C)(C)C4)n3)ccc1OCC2(C)O (single isomer, unassigned) [Compound 294] | – | pEC50: 6.00 to 6.30 |
| Cn1nnn(-c2cc(Nc3ncc(C#N)c(N[C@@H]4C[C@@H]5CCCN5C(C)(C)C4)n3)c(F)cc2OC2COC2)c1=O [Compound 113, 4-(((7R,8aS)-5,5-dimethyloctahydroindolizin-7-yl)amino)-2-((2-fluoro-5-(4-methyl-5-oxo-4,5-dihydro-1H-tetrazol-1-yl)-4-(oxetan-3-yloxy)phenyl)amino)pyrimidine-5-carbonitrile] | 6.30 to 7.00 | – |
| CC(O)COc1ccc(Nc2ncc(F)c(N[C@@H]3C[C@@H]4CCCN4C(C)(C)C3)n2)cc1-n1cnnn1 (stereo partly drawn) [Compound 206, 1-(4-((4-(((7R,8aS)-5,5-dimethyloctahydroindolizin-7-yl)amino)-5-fluoropyrimidin-2-yl)amino)-2-(1H-tetrazol-1-yl)phenoxy)propan-2-ol] | > 7.00 | – |
